Measurements as given in the OPERA property sets (Mansouri et al. 2018).

SMILES	logP
O=C(O)CCN1CCCCC1	-2.45
O=C(O)C1CCN1 (stereo not drawn)	-2.84
NC1(C(=O)O)CC1	-2.78
NC1(C(=O)O)CCCCC1	-1.87
CCC(N)C(=O)O (stereo not drawn)	-2.54
NCCC(=O)O	-3.05
CN(C)CC(=O)O	-2.91
NCCCCCCC(=O)O	-3.03
NCCCCCCCC(=O)O	-2.55

Results, then the molecule that gave them:

logP	SMILES
-2.89	O=C(O)C1CCCNC1 (stereo not drawn)
-2.28	NC1(C(=O)O)CCCC1
-2.31	O=C(O)C1CCCCN1 (stereo not drawn)
-3.05	O=C(O)C1CCNCC1
